Reference: patent US20050026977A1, “Zonisamide use in eating disorders” (priority 2002, published 2005)

What was measured:
[1] = preliminary studies; cited from earlier work
[2] = system: beagle dogs; conditions: dog, in vivo, 75 mg/kg/day; cited from earlier work
[3] = system: patients; conditions: patients treated with zonisamide; cited from earlier work
[4] = in vivo; cited from earlier work
[5] = system: kindled rat model; conditions: in vivo; cited from earlier work
[6] = system: rat hippocampal slices; conditions: 10-30 μg/mL; cited from earlier work
[7] = system: cats; conditions: electrical stimulation of the visual cortex; cited from earlier work
[8] = system: cultured mouse spinal cord neurons; conditions: 10-30 μg/mL; cited from earlier work
[9] = system: obese subjects (BMI of 30-44 kg/m^2); assay: 16-week randomized, double-blind, placebo-controlled trial of zonisamide in obesity; type: in vivo, human
Method: Objective: Short-term efficacy and safety of zonisamide in the treatment of obesity was evaluated. Inclusion Criteria: (1) Age 21-50; (2) BMI of 30-44 kg/m^2; and (3) Otherwise healthy as determined by the principal investigator. […] Method: 60 subjects were assigned to receive zonisamide or placebo (1:1 ratio) in a randomized, double-blind fashion for 16 weeks in addition to a slightly hypocaloric (500 kcal/day deficit) diet. Zonisamide dosing was flexible with a maximum of 600 mg/day. Zonisamide was started at 100 mg/d. Based on tolerability, the dose was titrated up as follows: Weeks 3-4: 200 mg/d; Weeks 5-6: 300 mg/d; Weeks 7-12: 400 mg/d. At the end of week 12, for those where at least 5% weight loss was not achieved, the dose was further increased to 600 mg/d. The entire dose is given at bedtime. However, based on tolerability, a part of the daily dose may be given in the morning.

[10] = system: GABA/benzodiazepine receptor ionophore complex; conditions: in vitro; cited from earlier work
[11] = system: cats; conditions: cortical freezing in cats; cited from earlier work
[12] = system: rats; conditions: cortical application of tungstic acid gel in rats; cited from earlier work

| Structure (SMILES) | effect on appetite and binging [1] | body weight change in chronic toxicity test [2] | course of weight loss over time [3] | weight loss as adverse event [3] | adverse effect on appetite [4] | anticonvulsant activity in threshold for generalized seizures [5] | effect on neuronal or glial uptake of [^3H]-GABA [6] | duration of cortical focal seizures [7] | effect on postsynaptic GABA or glutamate responses [8] | effect on synaptically-driven electrical activity [8] | average bodyweight lost ([9]; 16-week period, all randomized subjects, last observation carried forward, flexible dosing, maximum 600 mg/day, plus hypocaloric diet, p<0.0001 vs placebo) [%] | greater weight loss over placebo treatment (random coefficient regression estimate) ([9]; 16-week study duration, effects for age, race, gender, BMI, percent body fat, p<0.0001) [kg] | efficacy versus placebo as adjunct to hypocaloric diet in treatment of obesity ([9]; 16 weeks) | tolerability / side effects ([9]; 16 weeks, up to 600 mg/day) | subjects who lost ≥5% weight ([9]; 16 weeks, responders/subjects in group, p<0.0003 vs placebo) | binding to GABA/benzodiazepine receptor ionophore complex [10] | interictal spikes and secondarily generalized seizures [11] | interictal spikes and secondarily generalized seizures [12] |
| --- | --- | --- | --- | --- | --- | --- | --- | --- | --- | --- | --- | --- | --- | --- | --- | --- | --- | --- |
| CC1(C)O[C@@H]2[C@@H](CO[C@@]3(COS(N)(=O)=O)OC(C)(C)O[C@@H]23)O1 [topiramate] | suppress the appetite and to reduce the amount of binging |  |  |  |  |  |  |  |  |  |  |  |  |  |  |  |  |  |
| NS(=O)(=O)Cc1noc2ccccc12 [zonisamide, 1,2-benzisoxazole-3-methanesulfonamide] |  | early body weight losses occurred | the weight loss did not continue over time | weight loss was an adverse event | loss of appetite as an adverse effect | demonstrated an anticonvulsant activity | without affecting | reduced the duration of cortical focal seizures | without affecting postsynaptic GABA or glutamate responses | suppresses synaptically-driven electrical activity | 5.98 | 4.99 | significantly more effective than placebo | tolerated well with minimal side effects | 17/30 | binds to the GABA/benzodiazepine receptor ionophore complex in an allosteric fashion which does not produce changes in chloride flux | suppresses both interictal spikes and the secondarily generalized seizures | suppresses both interictal spikes and the secondarily generalized seizures |
